According to patent EP4631931A1, “HDAC INHIBITOR AND USE THEREOF” (Wigen Biomedicine Technology (Shanghai) Co., Ltd., priority 2022, dated 2024):

Key:
[1] = Pharmacokinetic experiment in mice; type: in vivo, CD-1 female mice; conditions: female, CD-1, mouse, plasma; for Vd: read-out: Vdss
Protocol: CD-1 female mice aged 7 to 10 weeks were intravenously administered and orally administered at doses of 1 mg/kg and 10 mg/kg, respectively. The mice were fasted for at least 12 h before the administration and given food 4 h after the administration, and they were given ad libitum access to water during the experiment.
(§1) On the day of the experiment, animals in the intravenous group were given the corresponding compound by single injection via the tail vein at an administration volume of 10 mL/kg; and animals in the oral group were given the corresponding compound by single intragastric injection at an administration volume of 10 mL/kg. The animals were weighed before administration, and the administration volume was calculated according to the body weight. The sample collection time points were 0.083 h, 0.167 h, 0.5 h, 1 h, 2 h, 4 h, 8 h, and 24 h. About 200 µL of whole blood was collected through the orbital venous plexus at each time point and used to prepare plasma for concentration determination by high-performance liquid chromatography-tandem mass spectrometry (LC-MS/MS). The plasma concentrations were processed using a non-compartmental model of Winnolin pharmacokinetic software, and the pharmacokinetic parameters were calculated using a linear-log trapezoidal method. Table 13. Results of in vivo pharmacokinetic evaluation of compounds of the present disclosure

HeLa cells = assay: Intracellular acetyl lysine / H3K 27 acetyl lysine level by ELISA; type: cell-based; conditions: 24 h of treatment
Protocol: HeLa cells were seeded into a 96-well plate at 20000 cells/well. After overnight adherence culture, the serially diluted compound was added. After 24 h of treatment, intracellular levels of acetyl lysine and H3K 27 acetyl lysine were quantified by ELISA. Table 9. Effect of compound of the present disclosure on levels of acetyl lysine and H3K 27 acetyl lysine

293T cell = assay: Inhibition of 293T cell proliferation (CTG, intracellular ATP); type: cell-based; conditions: Homo sapiens, HEK-293T, 72 h, compared to DMSO group, read-out: Inhibitory activity against 293T cell proliferation (IC50)
Protocol: Jurkat or 293T cells were seeded into a 96-well plate at 3000 cells/well. After overnight adherence culture, the serially diluted compound in DMSO was added. After 72 h, the intracellular ATP level was determined by CTG. The IC50 for the inhibition of cell proliferation by the compounds was calculated compared to the DMSO group. Table 8. Inhibitory activity of compounds of the present disclosure against Jurkat/293T cell proliferation (IC50, µM)

[2] = Stability in liver microsomes; type: in vitro ADME; conditions: 1 µM compound, NADPH, 37 °C
Protocol: After the 1 µM compound was incubated with 0.5 mg/mL of human or mouse liver microsomes and an NADPH regeneration system at 37 °C for different times, respectively, LC-MS-MS was used to analyze the remaining amount of the compound and calculate T1/2. Table 12. Evaluation results of stability of compounds of the present disclosure in human and mouse liver microsomes

[3] = Metabolite identification in liver microsomes and hepatocytes from various species; type: in vitro ADME; conditions: 10 µM compound, 1.0 mg/mL liver microsomes, 37 °C, 120 min; mouse, rat, dog, monkey, human
Protocol: After the 10 µM compound was separately incubated with 1.0 mg/mL liver microsomes or hepatocytes (from 5 species: mouse, rat, dog, monkey, and human), and an NADPH regeneration system at 37 °C for 120 min, a stop solution was added to terminate the reaction, and the incubated samples were removed from the water bath. After the reaction was terminated, the samples were vortexed and then centrifuged at 4 °C and 3260× g for 15 min. After centrifugation, all the supernatants were transferred to a 96-well plate for direct use in LC-MS analysis, or subjected to dilution or concentration and reconstitution prior to injection. An LC-UV-HRMSn (n = 1-2) analytical method was established on LC-UV-HRMSn, and data acquisition was performed using SCIEX OS software. The parent drug and the metabolites could be analyzed by mass spectrometry with different scanning modes (MS/MS or IDA) and ultraviolet full-wavelength scanning (λ = 190-500 nm). By comparing the ultraviolet and mass spectra of the post-incubation samples with those of blank samples from the same species, potential metabolites were identified. The possible structures of the metabolites were inferred by comparative analysis of the collision-induced dissociation (CID) fragments of the test compounds and their metabolites. The metabolites and their relative abundances were summarized in a table for interspecies comparison.

[4] = Pharmacokinetic experiment in rats; type: in vivo; conditions: female, rat, plasma
Protocol: Healthy female rats aged 6 to 8 weeks were intravenously administered and orally administered at doses of 1 mg/kg and 10 mg/kg. The rats were fasted overnight before the administration.
as §1, with “The” for “The animals were weighed before administration, and the administration volume was calculated according to the body weight. The”, “neck” for “orbital venous plexus”, “14.” for “13.”, “compounds” for “compounds of the present disclosure”

[5] = Injection (1 mg/kg), intravenous
[6] = Human liver microsomes 0.5 mg/mL
[7] = Mouse liver microsomes 0.5 mg/mL

AUC(0-t) [1, 5] [ng·h/mL] | clearance [1, 5] [mL/min/kg] | half-life [1, 5] [h] | Vd [1, 5] [L/kg] | AUC(0-t) ([1]; Oral administration (10 mg/kg)) [ng·h/mL] | Cmax ([1]; Oral administration (10 mg/kg)) [ng/mL] | Tmax ([1]; Oral administration (10 mg/kg)) [h] | bioavailability ([1]; Oral administration (10 mg/kg)) [%] | half-life ([1]; Oral administration (10 mg/kg)) [h] | CLint scaled at 1 µM [2, 6] [mL/min/kg] | Clliver [2, 6] [mL/min/kg] | half-life at 1 µM [2, 6] [h] | CLint scaled at 1 µM [2, 7] [mL/min/kg] | Clliver [2, 7] [mL/min/kg] | half-life at 1 µM [2, 7] [h] | Compound | Acetyl lysine Maximum (%) (HeLa cells) | Acetyl lysine Minimum effective concentration (HeLa cells) [nM] | H3K 27 Acetyl lysine Maximum (%) (HeLa cells) | H3K 27 Acetyl lysine Minimum effective concentration (HeLa cells) [nM] | IC50 (293T cell) [µM] | also measured
539 | 33.9 | 2.03 | 1.55 | 2490 | 3750 | 0.17 | 46.1 | 3.51 | 20.9 | 10.41 | 1.38 | 222 | 64.04 | 0.41 | Nc1cc(F)ccc1NC(=O)c1ccc(CNC(=O)/C=C/c2cccnc2)cc1 [Chidamide, reference compound] | 420 | 80 | 380 | 80 | 6.71 | –
453 | 36.8 | 1.28 | 1.13 | 2360 | 1330 | 0.17 | 52 | 3.13 | 7.95 | 5.74 | 3.64 | 231 | 64.79 | 0.393 | [2H]c1cc(C(=O)Nc2ccc(F)cc2N)ccc1CNC(=O)/C=C/c1cccnc1 [Compound 5, (E)-N-(2-amino-4-fluorophenyl)-4-((3-(pyridin-3-yl)acrylamido)methyl)-3-d benzamide] | 350 | 16 | 420 | 80 | > 10 | metabolic pathways and stability in liver microsomes from all the species [3]: simple metabolic pathways and good stability in liver microsomes from all the species; AUC(0-t) [4, 5]: 1260 ng·h/mL; clearance [4, 5]: 12.9 mL/min/kg; half-life [4, 5]: 6.54 h; Vd ([4]; Injection (1 mg/kg), intravenous, read-out: Vdss): 2.42 L/kg; AUC(0-t) ([4]; Oral administration (10 mg/kg)): 5150 ng·h/mL; Cmax ([4]; Oral administration (10 mg/kg)): 3420 ng/mL; Tmax ([4]; Oral administration (10 mg/kg)): 9.6 min; bioavailability ([4]; Oral administration (10 mg/kg)): 40.1%; half-life ([4]; Oral administration (10 mg/kg)): 4.01 h
